Test results taken from patent US12485179B2, “Cholecystokinin B receptor targeting for imaging and therapy” (Purdue Research Foundation, priority 2012, dated 2025).

Legend:
[1] = biological target: T1, CCK2R (Homo sapiens, UniProt P32239); assay: Binding of 99mTc conjugates to HEK-293 CCK2R cells (cell bound radioactivity); parameters: expressed in transfected cells; host or cells: HEK-293, G418-selected, from Dr. Mark Hellmich (University of Texas at Galveston)
T1 sequence (P32239 1-447): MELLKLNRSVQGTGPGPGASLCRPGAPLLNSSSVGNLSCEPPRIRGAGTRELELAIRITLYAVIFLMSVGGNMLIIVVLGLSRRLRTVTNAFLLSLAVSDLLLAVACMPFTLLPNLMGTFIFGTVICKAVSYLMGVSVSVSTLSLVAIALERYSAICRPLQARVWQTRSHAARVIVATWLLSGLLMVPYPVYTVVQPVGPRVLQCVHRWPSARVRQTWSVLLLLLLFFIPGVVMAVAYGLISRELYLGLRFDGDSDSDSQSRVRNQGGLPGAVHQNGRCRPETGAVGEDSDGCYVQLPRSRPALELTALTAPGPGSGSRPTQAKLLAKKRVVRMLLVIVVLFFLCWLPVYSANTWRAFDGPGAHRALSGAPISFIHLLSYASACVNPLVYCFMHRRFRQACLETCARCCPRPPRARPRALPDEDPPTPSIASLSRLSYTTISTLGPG
Experimental: CRL-1, CRL-2, CRL-3 and CRL-4 were chelated to ^99mTc and tested for binding using two transfected cell lines of HEK-CCK2R (HEK-293 CCK2R) and HEK-CCK2R splice cell line (HEK CCK2i4svR), obtained from Dr. Mark Hellmich (University of Texas at Galveston). Cells were cultured in Dulbecco's modified Eagles (Gibco) supplemented with 10% Fetal Bovine Serum and G418 disulfate (SIGMA; 400 μg/ml), 1% penicillin/streptomycin at 37° C. in a humidified 95% air, 5% CO2 atmosphere.
Competition studies were performed using 100 fold excess of free Z-360 containing corresponding peptide linker and no chelating moiety. HEK 293 CCK2R and HEK CCK2i4svR were seeded onto 24 well plates and allowed to become confluent over 48-72 hours. Spent medium in each well was replaced with 0.5 ml fresh media containing 0.5% BSA and increasing concentrations of the test article. After incubating for 1 h at 37° C. cells were rinsed with incubation solution (2×1.0 ml) to remove any unbound radioactivity. Cells were then resuspended on 0.5 ml 0.25N NaOH and cell radioactivity was counted using a γ-counter. The dissociation constant (KD) was calculated using a plot of cell bound radioactivity versus the concentration of the radiotracer using Graphpad Prism 4 and assuming a non-cooperative single site binding equilibrium.

[2] = tested on: HEK 293 cells expressing the CCK2R; type: cell-based; conditions: for cell toxicity / potency: concentration range used (FIG. 16); for IC50: dose dependent toxicity
Experimental: FIGS. 13A-C show the results of a study on the cytotoxicity of conjugate 23 in HEK CCK2R cells, shown at varying hours from introduction. CW-2478 denotes conjugate 23, with FIG. 13A showing values at 2 hours, FIG. 13B showing the values at 4 hours, and FIG. 13C showing the values at 9 hours.
This may partly explain the modest in vivo antitumor observed activity despite its impressive antagonistic effects.

[3] = tested on: HEK 293 cells expressing CCK2R tumors; assay: In vivo potency, subcutaneous HEK 293 CCK2R tumors; parameters: species or system nu/nu mice; conditions: for tumor size / growth during the period of the study / antitumor activity in comparison to untreated controls: 2 μmol/kg per injection
Experimental: Following the promising results obtained in vitro with the Z-360 targeted chemotherapeutics, antitumor effects of the compounds were investigated in vivo. HEK 293 cells expressing CCK2R (5.0×10^6 in 50% HC matrigel) were injected in the shoulder of 5-6 week old female nu/nu mice. Tumors were measured in two perpendicular directions every two to three days with vernier calipers, and their volumes calculated as 0.5×L×W^2 where L is the longest axis (in millimeters) and W is the axis perpendicular to L (in millimeters). Dosing solutions were prepared in saline and administered through either the lateral vein of the mice for Tubulysin B conjugates or intraperitoneally for desacetylvinblastine hydrazide conjugates. Dosing was initiated when the subcutaneous tumors reached ˜100 mm^3 in volume. Each mouse received 2 μmol/kg of the test conjugate in 100 microliters of saline per injection, three times a week for three weeks. Mouse weights were also recorded at each dosing as a measure of gross toxicity. Mice in the control groups received no treatment.

[4] = biological target: T1, CCK2R; conditions: cited from earlier work
[5] = tested on: subcutaneous PANC-1 tumor; conditions: oral Z-360 along with gemcitabine, cited from earlier work
[6] = three times a week for three weeks

Molecule | cell toxicity / potency [2] | tumor size / growth during the period of the study [3, 6] | antitumor activity in comparison to untreated controls [3, 6] | IC50 [2] [nM] | also measured
CC(C)(C)C(=O)CN1C(=O)[C@H](NC(=O)Nc2cccc(C(=O)N[C@@H](CCC(=O)O)C(=O)N[C@@H](CCC(=O)NC[C@H](O)[C@@H](O)[C@H](O)[C@H](O)CO)C(=O)N[C@@H](CCC(=O)O)C(=O)N[C@@H](CCC(=O)NC[C@H](O)[C@@H](O)[C@H](O)[C@H](O)CO)C(=O)NC[C@H](N)C(=O)N[C@@H](CC(=O)O)C(=O)N[C@@H](CS)C(=O)O)c2)CN(C2CCCCC2)c2ccccc21 [CRL-2 ^99mTc, metal not drawn] |  |  |  |  | specificity of binding (competition with free Z-360) ([1]; compared with CRL-1 99mTc): significantly higher specificity
CC(C)(C)C(=O)CN1C(=O)[C@H](NC(=O)Nc2cccc(C(=O)NC[C@H](N)C(=O)N[C@@H](CC(=O)O)C(=O)N[C@@H](CS)C(=O)O)c2)CN(C2CCCCC2)c2ccccc21 [CRL-4 ^99mTc, metal not drawn] |  |  |  |  | Kd ([1]; 1 h at 37° C., 99mTc chelated, read-out: Kd (nM) HEK-293-CCK2R Cells): 270 nM
CC[C@]1(O)CC2CN(CCc3c([nH]c4ccccc34)[C@@](C(=O)OC)(c3cc4c(cc3OC)N(C)[C@H]3[C@@](O)(C(=O)NNC(=O)OCCSSC[C@H](NC(=O)[C@@H](CCC(=O)NC[C@H](O)[C@@H](O)[C@H](O)[C@H](O)CO)NC(=O)[C@@H](CCC(=O)O)NC(=O)[C@@H](CCC(=O)NC[C@H](O)[C@@H](O)[C@H](O)[C@H](O)CO)NC(=O)[C@@H](CCC(=O)O)NC(=O)CCCCCCCN)C(=O)O)[C@H](O)[C@]5(CC)C=CCN6CC[C@]43[C@@H]65)C2)C1 (some centres unmarked) [Unt-DAVBH] | little to no potency | grew at almost the same rate as untreated controls |  |  | 
CCCC(=O)OCN(C(=O)[C@@H](NC(=O)C1CCCCN1C)C(C)CC)[C@H](C[C@@H](OC(C)=O)c1nc(C(=O)N[C@@H](Cc2ccc(O)cc2)C[C@H](C)C(=O)NNC(=O)OCCSSC[C@H](NC(=O)[C@@H](CCC(=O)NC[C@H](O)[C@@H](O)[C@H](O)[C@H](O)CO)NC(=O)[C@@H](CCC(=O)O)NC(=O)[C@@H](CCC(=O)NC[C@H](O)[C@@H](O)[C@H](O)[C@H](O)CO)NC(=O)[C@@H](CCC(=O)O)NC(=O)CCCCCCCN)C(=O)O)cs1)C(C)C (some centres unmarked) [Unt-TubH] | little to no potency |  | modest tumor inhibition |  | 
CC(C)(C)C(=O)CN1C(=O)[C@H](NC(=O)Nc2cccc(C(=O)O)c2)CN(C2CCCCC2)c2ccccc21 [Z-360, (R)-(−)-3-[3-(1-tert-butylcarbonylmethyl-2-oxo-5-cyclohexyl-1,3,4,5-tetrahydro-2H-1,5-benzodiazepin-3-yl)ureido]benzoic acid monohydrate] | no concentration dependent cell toxicity |  |  |  | selectivity ratio over CCK1R ([4]; CCK2R over CCK1R): 672; Ki [4]: 0.47 nM; inhibition of subcutaneous PANC-1 tumor growth ([5]; compared with either agent alone): 27.1%; survival ([5]; compared with the vehicle): significantly increased survival
CCCC(=O)OCN(C(=O)[C@@H](NC(=O)C1CCCCN1C)C(C)CC)[C@H](C[C@@H](OC(C)=O)c1nc(C(=O)N[C@@H](Cc2ccc(O)cc2)C[C@H](C)C(=O)NNC(=O)OCCSSC[C@H](NC(=O)[C@@H](CCC(=O)NC[C@H](O)[C@@H](O)[C@H](O)[C@H](O)CO)NC(=O)[C@@H](CCC(=O)O)NC(=O)[C@@H](CCC(=O)NC[C@H](O)[C@@H](O)[C@H](O)[C@H](O)CO)NC(=O)[C@@H](CCC(=O)O)NC(=O)CCCCCCCNC(=O)c2cccc(NC(=O)N[C@@H]3CN(C4CCCCC4)c4ccccc4N(CC(=O)C(C)(C)C)C3=O)c2)C(=O)O)cs1)C(C)C (some centres unmarked) [conjugate 22] |  | reduction of tumor sizes | remarkable antitumor activity | 12 | disappearance of tumors ([3]; 2 μmol/kg, three times a week for three weeks, lateral vein): ⅗
CC[C@]1(O)C[C@@H]2CN(CCc3c([nH]c4ccccc34)[C@@](C(=O)OC)(c3cc4c(cc3OC)N(C)[C@H]3[C@@](O)(C(=O)NNC(=O)OCCSSC[C@H](NC(=O)[C@H](CCC(=O)NC[C@H](O)[C@@H](O)[C@H](O)[C@H](O)CO)NC(=O)[C@H](CCC(=O)O)NC(=O)[C@H](CCC(=O)NC[C@H](O)[C@@H](O)[C@H](O)[C@H](O)CO)NC(=O)[C@H](CCC(=O)O)NC(=O)CCCCCCCNC(=O)c5cccc(NC(=O)N[C@@H]6CN(C7CCCCC7)c7ccccc7N(CC(=O)C(C)(C)C)C6=O)c5)C(=O)O)[C@H](O)[C@]5(CC)C=CCN6CC[C@]43[C@@H]65)C2)C1 [conjugate 23] |  | remain the same size | remarkable antitumor activity |  | H & E staining of remaining tumor masses ([3]; conjugate 23 and conjugate 23+competition groups): contain very few malignant cells
tubulysin b [reference compound] |  |  |  | 1.3 | 
vinblastine [reference compound] |  |  |  | 8 | 
